For the assay, the target named is T1, Mct (mesaconyl-CoA transferase; mesaconyl-C1:C4-CoA CoA transferase) (Chloroflexus aurantiacus, UniProt A9WC36).
T1 construct: intertwined homodimer
T1 sequence (A9WC36 1-409): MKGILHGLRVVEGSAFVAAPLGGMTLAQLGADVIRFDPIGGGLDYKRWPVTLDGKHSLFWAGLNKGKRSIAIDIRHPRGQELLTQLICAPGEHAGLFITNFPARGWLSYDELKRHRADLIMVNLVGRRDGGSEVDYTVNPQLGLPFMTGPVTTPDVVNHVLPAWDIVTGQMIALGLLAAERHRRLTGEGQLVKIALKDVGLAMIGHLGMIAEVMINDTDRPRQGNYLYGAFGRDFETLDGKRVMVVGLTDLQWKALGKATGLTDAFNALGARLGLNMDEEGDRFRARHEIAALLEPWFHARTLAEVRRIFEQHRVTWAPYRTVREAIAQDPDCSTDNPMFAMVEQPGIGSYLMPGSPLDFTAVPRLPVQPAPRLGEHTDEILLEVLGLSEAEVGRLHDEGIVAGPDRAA
The experiment in a line: HPLC-MS of succinyl-CoA formation. It counts as biochemical. As to conditions: alternative CoA acceptor (side activity); co-substrate 1 mM mesaconyl-C4-CoA; 200 mM HEPES/KOH pH 8.0, 55 °C, 6 μM Mct; read-out: apparent KM.

Take `O=C(O)CCC(=O)O` [succinate]: the Km (in general, the concentration of substrate that gives half-maximal velocity) is more than 25 mM.
